In PubChem BioAssay (NCI):
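48-hour exposure; five concentrations; linearly interpolated endpoints. GI50: concentration for 50% inhibition of growth. TGI is the concentration that stops growth completely.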

Experiments:
Test in all cases: NCI-60 cell line screen, 48 h
HCT-116 colon = tested on: HCT-116 colon
IGROV1 ovarian = tested on: IGROV1 ovarian
MDA-MB-231 breast = tested on: MDA-MB-231 breast
SW-620 colon = tested on: SW-620 colon
SNB-75 CNS = tested on: SNB-75 CNS
HS 578T breast = tested on: HS 578T breast
MOLT-4 leukemia = tested on: MOLT-4 leukemia
HT29 colon = tested on: HT29 colon
RXF 393 renal = tested on: RXF 393 renal
NCI-H226 lung = tested on: NCI-H226 lung

Row | Structure (SMILES) | GI50 (HCT-116 colon) [µM] | TGI (HCT-116 colon) [µM] | GI50 (IGROV1 ovarian) [µM] | TGI (IGROV1 ovarian) [µM] | GI50 (MDA-MB-231 breast) [µM] | TGI (MDA-MB-231 breast) [µM] | GI50 (SW-620 colon) [µM] | TGI (SW-620 colon) [µM] | GI50 (SNB-75 CNS) [µM] | TGI (SNB-75 CNS) [µM] | GI50 (HS 578T breast) [µM] | TGI (HS 578T breast) [µM] | GI50 (MOLT-4 leukemia) [µM] | TGI (MOLT-4 leukemia) [µM] | GI50 (HT29 colon) [µM] | TGI (HT29 colon) [µM] | GI50 (RXF 393 renal) [µM] | TGI (RXF 393 renal) [µM] | TGI (NCI-H226 lung) [µM] | GI50 (NCI-H226 lung) [µM]
1 | Cc1ccc(C2C3=C(N=c4s/c(=C/c5ccc(Br)cc5)c(=O)n42)c2ccc4ccccc4c2OCC3)cc1 (configuration not stated) | > 100 | > 100 | > 100 | > 100 | > 100 | > 100 | > 100 | > 100 | > 100 | > 100 | > 100 | > 100 | > 100 | > 100 | 67.8 | > 100 | > 100 | > 100 |  | 
2 | Cc1nc(Nc2ccccc2)sc1C(=O)NNc1ccc([N+](=O)[O-])cc1[N+](=O)[O-] |  | > 100 |  | > 100 |  |  |  | > 100 |  | 95.3 |  |  |  | 69.7 |  | > 100 |  | 78.5 | > 100 | 
3 | N#C/C(N)=C(\C#N)N=Cc1csc2ccccc12 | 26.8 | 83.6 | 15.8 | 67.2 | 15.2 | 41 | > 100 | > 100 | 12.5 | 31.2 | 13.1 | 58.9 | 4.08 | > 100 | 22.2 | > 100 |  |  | 76.3 | 19.4
4 | Cc1ccc2c(c1)O/C(=C\c1ccc([N+](=O)[O-])o1)C2=O | 0.373 | 1.32 | 1.42 | 4.69 | 1.36 | 3.27 | 0.296 | 1.27 | 2.85 | > 100 | 2.09 | 6.25 | 2.35 | 7.52 | 0.659 | 2.08 | 1.34 | 2.74 |  | 
5 | Nc1ccc2ccc(NS(=O)(=O)N3CCCCC3)cc2c1 | 0.514 | > 38.7 | 0.765 | > 100 | 0.728 | > 33.7 | 0.336 | > 100 | 0.446 | > 100 | 0.396 | 5.99 | 0.524 | > 100 | 0.4 | > 100 |  |  | > 100 | 2.56
6 | CCOc1ccc2ccc3cccnc3c2n1 |  | > 100 |  | > 100 |  | > 100 |  | > 100 |  | > 100 |  | > 100 |  |  |  | > 100 |  | > 100 | > 100 | 
7 | O=C1c2ccn(CCCCN3CCCCC3)c2C(=O)c2c1c(O)c1ccccc1c2O | 7.76 | > 53.9 | 11.1 | > 100 |  |  | 3.18 | 10.6 | 8.45 | > 73.8 | 27 | 65.1 | 3.49 | > 100 | 4.14 | > 100 | 5.54 | 18 | > 73.7 | 30
